Source: patent US12410155B2, “Salt form and crystal form of tetrahydrocyclohepta indazole compound” (Zhejiang Yangli Pharmaceutical Technology Co., Ltd., priority 2021, dated 2025)
Read-outs that look alike come from different tables or passages of the source.

Assays:
[1] = system: MCF-7 ESR1-Y537S; assay: Proliferation inhibition assay, MCF-7 ESR1-Y537S mutant cell line; format: cell-based; conditions: Homo sapiens, MCF7, 168 h, 7 days
Method: The tumor cell lines were cultured in an incubator at 37° C. with 5% CO2. Regular passaging was performed, and cells in the logarithmic growth phase were selected for plating.
• 1) Cells were stained with trypan blue and viable cells were counted. • 2) Cells were washed once with PBS and resuspended in RPMI 1640+10% FBS medium without phenol red. The concentration was adjusted to an appropriate one. • 3) 135 μL of the cell suspension per well was added to a culture plate, and cell-free culture medium was added to the blank control well. • 4) The plates were incubated overnight at 37° C. with 5% CO2 and 100% relative humidity. 3. Preparation of 10× Compound Working Solution and Treatment of Cells • 1) Preparation of 10× compound working solution: 199 μL of cell culture medium was added to V-bottom 96-well plates. From a 2000× compound storage plate, 1 μL of the compound was added to the 96-well plate containing cell culture medium. 1 μL of DMSO was added to vehicle control and blank control. […] The final concentration of DMSO was 0.05%. • 3) The 96-well cell plate was returned to the incubator for further culture, and cell viability was assessed after 7 days. […]
The inhibition rate (IR) of the compound was calculated using the following formula:
[formula] Inhibition rates for different concentrations of the compound were calculated in Excel. […]

[2] = system: HCC1428 cells; assay: HCC1428 cell proliferation inhibition assay (CTG); format: cell-based; conditions: Homo sapiens, HCC1428, 168 h, 7 days
Method: (5) HCC1428 and MDA-MB-134VI Cell Proliferation Inhibition Assay
The initial concentration of the compound of formula (I) was set at 200 nM, followed by 4-fold serial dilutions to achieve ten concentration gradients.
• 1) HCC1428 cells were cultured in RPMI 1640 complete growth medium containing 10% FBS and 1% PenStrep. • 2) When the cells in a T75 culture flask reached 80-90% cell fusion, they were digested with trypsin and collected. The cell passages used were the seventh generation for the first independent experiment and the thirteenth generation for the second independent experiment. • 3) The cells were centrifuged at 1000 rpm, resuspended in complete medium, and counted. The cell densities were 1.30×10^6 cells/mL for the first experiment and 9.50×10^5 cells/mL for the second experiment, with viability both exceeding 95%. • 4) Cell suspensions were prepared in complete medium at a density of 1.25×10^4 cells/mL for both experiments. […] 100 μL of CellTiter-Glo® reagent was added to each well. The plate was incubated at room temperature in the dark for 30 minutes. • 8) Luminescence values were read using a BMG plate reader.
The IC50 (half-maximal inhibitory concentration) of the compound was obtained using the following nonlinear fitting formula: […]

[3] = system: human breast cancer MCF-7 cell subcutaneous xenograft tumor; format: in vivo; conditions: PO, QD; for T/C (%) / TGI (%) / Tumor volume (mm^3) (Day 21): Day 21; for Tumor volume (mm^3) (Day 21): listed as compound (I)
Method: (1) In Vivo Pharmacodynamic Study of Breast Cancer MCF-7 Cell Subcutaneous Xenograft Tumor BALB/c Nude Mouse Model
Objective: This study aimed to evaluate the in vivo efficacy of the crystal form C of the compound of formula (I) using a human breast cancer MCF-7 cell subcutaneous xenograft tumor model in nude mice.
Routine digestion with trypsin-EDTA (Gibco) was performed twice a week for passaging.
Cell inoculation: Estrogen pellets (0.36 mg/pellet; IRA) were subcutaneously inoculated into the left dorsum of each mouse. Three days later, 0.2 mL (1×10^7 cells) of MCF-7 cells (mixed with Matrigel; CORNING, volume ratio 1:1) were subcutaneously inoculated into the right dorsum of each mouse. When the average tumor volume reached 188 mm^3, the mice were grouped and the administration of compounds began.
An appropriate amount of the compound of formula (I) was weighed and prepared into 0.1, 0.3, 1, and 3 mg/mL solutions. […] Fulvestrant was used as the commercially available injection Faslodex.
The antitumor efficacy of the compounds was evaluated using Tumor Growth Inhibition (TGI, %) and relative tumor proliferation rate (T/C, %).
The Q value of combined medication index was calculated using the Jin formula. The criteria for judgment were as follows: a Q value of 0.85 to 1.15 indicated […] (+); a Q value>1.15 to 2.0 indicated enhancement (++); a Q value<0.85 to 0.55 indicated antagonism (−); and a Q value<0.55 indicated significant antagonism (−−). The formula was Q=Ea+b/(Ea+Eb−Ea×Eb), where Ea+b was the tumor inhibition rate of the combined medication group, and Ea and Eb were the tumor inhibition rates of the single medication groups, respectively.
Inter-group comparisons were analyzed using one-way ANOVA. […] A p value<0.05 was considered to indicate a significant difference.

FCCCN1CC[C@H](Nc2cnc(C3=C(CC(F)(F)F)CCCc4c3ccc3[nH]nc(F)c43)cn2)C1 [Compound of formula (I)]
IC50 ([1]; read-out: Relative IC50): 11.2 nM | IC90 ([1]; read-out: Relative IC90): 101 nM | IC50 ([2]; First experiment): 0.49 nM | IC50 ([2]; Mean ± SD): 1.55 ± 0.99 nM | IC50 ([2]; Second experiment): 1.34 nM | T/C (%) ([3]; 1 mg/kg): 27.2% | TGI (%) ([3]; 1 mg/kg): 85.3% | Tumor volume (mm^3) (Day 21) ([3]; 1 mg/kg): 340 mm^3 | T/C (%) ([3]; 3 mg/kg): 14.8% | TGI (%) ([3]; 3 mg/kg): 100.9% | Tumor volume (mm^3) (Day 21) ([3]; 3 mg/kg): 179 mm^3 | ORR % ([3]; 10 mg/kg): 25% | T/C (%) ([3]; 10 mg/kg): 11.3% | TGI (%) ([3]; 10 mg/kg): 104.6% | Tumor volume (mm^3) (Day 21) ([3]; 10 mg/kg): 140 mm^3 | ORR % ([3]; 30 mg/kg): 25% | T/C (%) ([3]; 30 mg/kg): 9.7% | TGI (%) ([3]; 30 mg/kg): 106.5% | Tumor volume (mm^3) (Day 21) ([3]; 30 mg/kg): 121 mm^3
